# Assay results from publication PMC4532999 (Scientific Reports, 2015).
# Positions of bridges follow the written chain, without caps; N, C: chain ends. Residues, ends and D or L forms follow the SMILES beside them.
# Experiments:
# Serum stability assay = settings: for stability in human serum (in words; comparison to MCoTI-II at 24 h): 100% human serum, 37 °C, one-way ANOVA, three replicates; for remaining at 24 h, 30 μM: male, human, serum
# Procedure: All peptides were tested at a final concentration of 30 μM in 100% human serum. […] Reactions were stopped at the stipulated times and the serum proteins in each sample were denatured and precipitated, followed by centrifugation at 17,000 g for 10 min to separate the serum proteins from peptide samples. […] The elution time for each peptide was determined by the PBS control from 0 time point. The percentage of peptide remaining at each time point was calculated using the height of the serum-treated peptide peak from time 0 as 100% recovery.
# HeLa cells = system: HeLa cells
# Procedure: Since BCR-ABL localizes predominantly in the cytoplasm, it is important to evaluate whether the designed peptides can be internalized into cells.
# Human cervical cancer cells (HeLa) were seeded in 175-cm^2 tissue culture flasks (Falcon), in Dulbecco’s Modified Eagle’s Medium (DMEM) supplemented with 10% fetal bovine serum, 100 U/mL penicillin and […] streptomycin, until 80% confluent.
# Cytotoxicity of the MTAbl peptides towards HeLa cells was evaluated before the cell internalization assay. The mammalian cell cytotoxicity assay was conducted using a method described earlier. HeLa cells were seeded the day before the assay in 96-well tissue culture-treated plates (2.5 × 10^3 cells/well). […] Peptide solutions were diluted 10-fold with serum-free medium and incubated with cells in triplicates for 2 h. […] Following incubation the peptide solutions were removed and aliquots of 10 μL of 0.02% (w/v) sterile resazurin (resazurin sodium salt, Sigma) were added to each well containing 100 μL of fresh medium. […] The absorbance of the plates was measured on a plate reader at 540 and 620 nm.
# [1] = 100% human male AB serum (Sigma); settings: 37 °C, up to 24 h
# Abl kinase = Abl kinase (Homo sapiens, UniProt P00519); experiment: BacKin assay, inhibition of phosphorylation of abltide displayed on E. coli; assay type: biochemical; settings: 32 μM peptide, Abl kinase 0.2 U/mL, 37 °C, 30 min
# Chain of Abl kinase (P00519 whole entry, the tested form may be a part): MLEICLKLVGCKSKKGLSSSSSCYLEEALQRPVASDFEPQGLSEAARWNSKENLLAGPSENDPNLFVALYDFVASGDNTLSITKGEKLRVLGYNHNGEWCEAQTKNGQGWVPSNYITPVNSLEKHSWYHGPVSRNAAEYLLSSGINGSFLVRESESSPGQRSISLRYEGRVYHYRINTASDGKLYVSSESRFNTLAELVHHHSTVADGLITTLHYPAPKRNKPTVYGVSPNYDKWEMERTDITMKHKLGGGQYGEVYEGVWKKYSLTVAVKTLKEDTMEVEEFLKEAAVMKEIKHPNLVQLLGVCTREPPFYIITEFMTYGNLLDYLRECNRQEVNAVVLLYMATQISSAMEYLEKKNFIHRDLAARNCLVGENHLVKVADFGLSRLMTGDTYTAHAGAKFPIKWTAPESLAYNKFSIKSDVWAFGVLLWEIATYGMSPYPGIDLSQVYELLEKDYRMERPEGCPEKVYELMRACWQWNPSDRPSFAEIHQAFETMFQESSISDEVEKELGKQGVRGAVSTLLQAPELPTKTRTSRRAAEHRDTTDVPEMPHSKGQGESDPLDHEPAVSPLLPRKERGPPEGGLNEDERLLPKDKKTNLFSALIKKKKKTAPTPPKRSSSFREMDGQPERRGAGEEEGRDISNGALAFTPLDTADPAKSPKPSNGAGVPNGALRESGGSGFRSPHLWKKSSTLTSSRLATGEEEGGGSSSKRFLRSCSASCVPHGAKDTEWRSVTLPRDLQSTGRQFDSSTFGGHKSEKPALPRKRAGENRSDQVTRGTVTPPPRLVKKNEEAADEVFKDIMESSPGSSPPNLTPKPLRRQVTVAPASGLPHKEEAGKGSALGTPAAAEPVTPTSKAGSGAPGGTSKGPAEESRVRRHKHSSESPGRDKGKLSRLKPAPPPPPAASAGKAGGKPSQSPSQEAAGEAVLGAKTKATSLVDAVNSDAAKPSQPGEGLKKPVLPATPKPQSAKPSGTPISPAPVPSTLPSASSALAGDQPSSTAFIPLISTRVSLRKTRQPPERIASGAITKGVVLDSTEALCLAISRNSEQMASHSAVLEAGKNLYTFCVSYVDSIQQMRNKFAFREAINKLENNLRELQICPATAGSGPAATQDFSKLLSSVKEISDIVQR
Compound,stability in human serum (in words; comparison to MCoTI-II at 24 h) (Serum stability assay),"remaining at 24 h, 30 μM (Serum stability assay) [%]",concentration up to which no cytotoxicity towards HeLa cells (HeLa cells) [µM],fragment found [1],percentage of Abl kinase inhibition (Abl kinase)
"CC[C@H](C)[C@@H]1NC(=O)[C@H](C)NC(=O)[C@H](CCC(=O)O)NC(=O)[C@@H]2CSSC[C@@H]3NC(=O)[C@H](C)NC(=O)CNC(=O)[C@@H]4CCCN4C(=O)[C@@H]4CSSC[C@H](NC(=O)[C@H](Cc5ccc(O)cc5)NC(=O)CNC(=O)[C@H](CC(N)=O)NC(=O)CNC(=O)[C@H](CCCNC(=N)N)NC(=O)[C@H](CSSC[C@H](NC(=O)[C@H](CCCCN)NC(=O)[C@@H]5CCCN5C(=O)[C@H](C)NC(=O)[C@H](C)NC(=O)[C@H](Cc5ccc(O)cc5)NC1=O)C(=O)N[C@@H](CCCNC(=N)N)C(=O)N[C@@H](CCCNC(=N)N)C(=O)N[C@@H](CC(=O)O)C(=O)N[C@@H](CO)C(=O)N[C@@H](CC(=O)O)C(=O)N4)NC(=O)[C@H]([C@@H](C)CC)NC3=O)C(=O)NCC(=O)N[C@@H](CO)C(=O)NCC(=O)N[C@@H](CO)C(=O)N[C@@H](CC(=O)O)C(=O)NCC(=O)NCC(=O)N[C@@H](C(C)C)C(=O)N2 [MTAbl09] (cyclo(AAPKCRRDSDCPGACICRGNGYCGSGSDGGVCEAIY); disulfide 5-17, 11-23, 15-32)",statistically more stable than MCoTI-II,> 75,> 64,–,–
"CC[C@H](C)[C@@H]1NC(=O)[C@H](C)NC(=O)[C@H](CCC(=O)O)NC(=O)CNC(=O)[C@@H]2CSSC[C@@H]3NC(=O)[C@H](CC(=O)O)NC(=O)[C@H](CO)NC(=O)[C@H](CC(=O)O)NC(=O)[C@H](CCCNC(=N)N)NC(=O)[C@H](CCCNC(=N)N)NC(=O)[C@@H]4CSSC[C@H](NC(=O)[C@H]([C@@H](C)CC)NC(=O)[C@H](CSSC[C@H](NC(=O)[C@H](CCCNC(=N)N)NC(=O)[C@H](C)NC(=O)[C@H](Cc5ccccc5)NC(=O)[C@@H]5CCCN5C(=O)[C@H](C)NC(=O)[C@H](C)NC(=O)[C@H](Cc5ccc(O)cc5)NC1=O)C(=O)N[C@@H](CCC(=O)O)C(=O)N[C@@H](C)C(=O)N[C@@H]([C@@H](C)CC)C(=O)N[C@@H](Cc1ccc(O)cc1)C(=O)N[C@@H](C)C(=O)N[C@@H](C)C(=O)N1CCC[C@H]1C(=O)N[C@@H](CCCCN)C(=O)N4)NC(=O)[C@H](C)NC(=O)CNC(=O)[C@@H]1CCCN1C3=O)C(=O)N[C@@H](CCCNC(=N)N)C(=O)NCC(=O)N[C@@H](CC(N)=O)C(=O)NCC(=O)N[C@@H](Cc1ccc(O)cc1)C(=O)N2 [MTAbl13] (cyclo(AAPFARCEAIYAAPKCRRDSDCPGACICRGNGYCGEAIY); disulfide 7-26, 16-28, 22-34)",statistically more stable than MCoTI-II,> 75,> 64,–,–
"CC[C@H](C)[C@@H]1NC(=O)[C@H](C)NC(=O)[C@H](CCC(=O)O)NC(=O)CNC(=O)[C@@H]2CSSC[C@@H]3NC(=O)[C@H](CC(=O)O)NC(=O)[C@H](CO)NC(=O)[C@H](CC(=O)O)NC(=O)[C@H](CCCNC(=N)N)NC(=O)[C@H](CCCNC(=N)N)NC(=O)[C@@H]4CSSC[C@H](NC(=O)[C@H]([C@@H](C)CC)NC(=O)[C@H](CSSC[C@H](NC(=O)[C@H](CCCNC(=N)N)NC(=O)[C@H](CCCNC(=N)N)NC(=O)[C@H](CCCNC(=N)N)NC(=O)[C@H](C)NC(=O)[C@H](Cc5ccccc5)NC(=O)[C@@H]5CCCN5C(=O)[C@H](C)NC(=O)[C@H](C)NC(=O)[C@H](Cc5ccc(O)cc5)NC1=O)C(=O)N1CCC[C@H]1C(=O)N[C@@H](CCCCN)C(=O)N[C@@H]([C@@H](C)CC)C(=O)N[C@@H](CC(C)C)C(=O)N[C@@H](CCCCN)C(=O)N[C@@H](CCCCN)C(=O)N4)NC(=O)[C@H](C)NC(=O)CNC(=O)[C@@H]1CCCN1C3=O)C(=O)N[C@@H](CCCNC(=N)N)C(=O)NCC(=O)N[C@@H](CC(N)=O)C(=O)NCC(=O)N[C@@H](Cc1ccc(O)cc1)C(=O)N2 [MTAbl07] (cyclo(AAPFARRRCPKILKKCRRDSDCPGACICRGNGYCGEAIY); disulfide 9-26, 16-28, 22-34)",as stable as MCoTI-II,> 75,> 64,–,–
CPKILKKCRRDSDCPGACICRGNGYCGEAIY*AAPFAR,–,–,–,MTAbl06 (i.e. dephosphorylated MTAbl12),–
"CC[C@H](C)[C@@H]1NC(=O)[C@H](C)NC(=O)[C@H](CCC(=O)O)NC(=O)CNC(=O)[C@@H]2CSSC[C@@H]3NC(=O)[C@H](CC(=O)O)NC(=O)[C@H](CO)NC(=O)[C@H](CC(=O)O)NC(=O)[C@H](CCCNC(=N)N)NC(=O)[C@H](CCCNC(=N)N)NC(=O)[C@@H]4CSSC[C@H](NC(=O)[C@H]([C@@H](C)CC)NC(=O)[C@H](CSSC[C@H](NC(=O)[C@H](CCCNC(=N)N)NC(=O)[C@H](C)NC(=O)[C@H](Cc5ccccc5)NC(=O)[C@@H]5CCCN5C(=O)[C@H](C)NC(=O)[C@H](C)NC(=O)[C@H](Cc5ccc(O)cc5)NC1=O)C(=O)N1CCC[C@H]1C(=O)N[C@@H](CCCCN)C(=O)N[C@@H]([C@@H](C)CC)C(=O)N[C@@H](CC(C)C)C(=O)N[C@@H](CCCCN)C(=O)N[C@@H](CCCCN)C(=O)N4)NC(=O)[C@H](C)NC(=O)CNC(=O)[C@@H]1CCCN1C3=O)C(=O)N[C@@H](CCCNC(=N)N)C(=O)NCC(=O)N[C@@H](CC(N)=O)C(=O)NCC(=O)N[C@@H](Cc1ccc(O)cc1)C(=O)N2 [MTAbl06] (cyclo(AAPFARCPKILKKCRRDSDCPGACICRGNGYCGEAIY); disulfide 7-24, 14-26, 20-32)",–,> 75,> 64,–,~ 90%
